The values that follow come from patent US10017580B2, “Humanized anti-Tn-MUC1 antibodies and their conjugates” (ADC THERAPEUTICS S.A., priority 2014, dated 2018).

The test system of data set [1] is K562 human chronic myeloid leukaemia cells. The data set is described as follows: K562 assay (MTT cytotoxicity of released compounds). The class given is cell-based. The following applies: drug incubation 1 hour or 96 hours (not specified which). On the procedure:
K562 human chronic myeloid leukaemia cells were maintained in RPM1 1640 medium supplemented with 10% fetal calf serum and 2 mM glutamine at 37° C. in a humidified atmosphere containing 5% CO2 and were incubated with a specified dose of drug for 1 hour or 96 hours at 37° C. in the dark. The incubation was terminated by centrifugation (5 min, 300 g) and the cells were washed once with drug-free medium. Following the appropriate drug treatment, the cells were transferred to 96-well microtiter plates (10^4 cells per well, 8 wells per sample). Plates were then kept in the dark at 37° C. in a humidified atmosphere containing 5% CO2. The assay is based on the ability of viable cells to reduce a yellow soluble tetrazolium salt, 3-(4,5-dimethylthiazol-2-yl)-2,5-diphenyl-2H-tetrazolium bromide (MTT, Aldrich-Sigma), to an insoluble purple formazan precipitate. Following incubation of the plates for 4 days (to allow control cells to increase in number by approximately 10 fold), 20 μL of MTT solution (5 mg/mL in phosphate-buffered saline) was added to each well and the plates further incubated for 5 h. The plates were then centrifuged for 5 min at 300 g and the bulk of the medium pipetted from the cell pellet leaving 10-20 μL per well. […] The optical density was then read at a wavelength of 550 nm on a Titertek Multiscan ELISA plate reader, and a dose-response curve was constructed. […]

Data set [2] relates to ZR-75-1 cell line, which expresses Tn-MUC1. Kind of data set: ZR-75-1 cell binding assay by flow cytometry (protocol 6). The conditions noted are these: flow cytometry, live cells. On the procedure:
Protocol 6: ZR-75-1 Cell Binding Assay by Flow Cytometry Materials • Wash solution: PBS 0.1% (w/v) sodium azide • Binding buffer: PBS, 10% normal goat serum, 0.1% (w/v) sodium azide) • 96 well U-well microplate Protocol
Exponentially growing cells are suspended by incubation with cell dissociation buffer enzyme-free, Hanks-based (Gibco 13150-016) following the manufacturer's instructions. A cell count/viability is done on a dilution of 10 ul cells+Trypan Blue, 10 ul, with a haemocytomer. The suspension is centrifuged and the cell pellet re-suspended in binding buffer at 3×10^6 per ml. If significant levels of aggregates are present in the cell count, the suspension is filtered to remove aggregates. The cell suspension is dispensed (50 ul/well) in 96 well U-bottom plates and cooled on ice for 10 minutes. Primary antibody (50 ul/well) diluted in binding buffer (typically 1 ug per ml or less) is added to each well and incubated at 4° C. for 1 hour. […] Cells are then re-suspended in PBS if reading immediately or fixed in 100 ul of paraformaldehyde (2% (w/v) in PBS) and analysed with by flow cytometer (Accuri C6), gating on live cells which have a lower Fixable Viability Dye MFI compared to dead cells.
IgG binding potency to Tn-MUC1 was measured as per protocol 4 and binding to the ZR-75-1 cell line, which expresses Tn-MUC1, was measured as per protocol 6.
(In general: Flow cytometry measures light scatter and fluorescence of single cells or particles in a stream.)

A short description of data set [3]: Thermal denaturation assay (protocol 5). It is filed as physicochemical. The following applies: 50% inactivation temperature, 10 minutes heating, read by antigen-binding ELISA. In general terms: ELISA stands for enzyme-linked immunosorbent assay.
The target of another data set is Tn-MUC1 (16TR-MUC1-Tn). Kind of data set: Tn-MUC1 binding ELISA (protocol 4). The following applies: ELISA on 16TR-MUC1-Tn coated plate. Further details: species or system human.
Chain of Tn-MUC1 (16TR-MUC1-Tn) (P15941 141-460 limits assumed): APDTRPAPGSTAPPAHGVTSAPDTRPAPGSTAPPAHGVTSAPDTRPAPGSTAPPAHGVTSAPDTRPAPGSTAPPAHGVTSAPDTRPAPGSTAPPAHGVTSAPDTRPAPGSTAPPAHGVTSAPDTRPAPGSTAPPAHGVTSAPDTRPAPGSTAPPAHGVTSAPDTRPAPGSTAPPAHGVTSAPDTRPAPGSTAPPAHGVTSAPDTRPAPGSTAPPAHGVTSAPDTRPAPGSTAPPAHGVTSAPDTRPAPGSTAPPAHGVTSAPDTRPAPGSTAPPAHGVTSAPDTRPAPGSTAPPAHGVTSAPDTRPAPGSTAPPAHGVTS

Consider `COc1cc2c(cc1OCCCOc1cc3c(cc1OC)C(=O)N1C=C(C)C[C@H]1C=N3)N=C[C@@H]1CC(C)=CN1C2=O` [Compound RelE], for which, in data set [1], the IC50 – broadly, the concentration that gives 50% inhibition – is 0.425 nM.

As for “Mouse 5E5: anti-Tn MUC 1 antibody comprising a VH domain according to SEQ ID NO. 1 and a VL domain according to SEQ ID NO. 30 [reference compound]”, the “ZR-75-1 cell binding EC50” value in data set [2] was found to be 0.02834 µg/mL. Moreover, the Tm (in general, the temperature at the midpoint of the melting transition) in data set [3] amounted to 69.97 °C. Besides, the “Tn-MUC1 binding EC50” value on Tn-MUC1 (16TR-MUC1-Tn) amounted to 0.0311 µg/mL.
